Assay results as given in US20020151707A1, “Immune mediators and related methods” (Corixa Corp., priority 1995, published 2002).

Experiments:
[1] = tested on: C-terminal amidated GAD65+I-A^g7 restricted T cell hybridomas (MBD.1, MBD2.3, MBD2.7, MBD2.8, MBD2.11, MBD2.14); assay: Activation of GAD65 restricted T-cell hybridomas, read as CTLL proliferation in response to IL-2; format: cell-based, NOD mouse; details: hybridoma MBD.1; peptide + I-A^g7 of NOD APCs; CTLL cells
Protocol: To determine specificity of the T-cell hybridomas, antigen-presenting cells (APCs) were prepared by grinding NOD mice spleens and lysing as in Example 11. The splenocytes were brought to 3 ml in Bruff's medium containing 10% FBS. Mitomycin C (Sigma) was added at 0.3 ml per 3 ml of cell suspension to prevent DNA synthesis. The APCs were incubated for 30 minutes in a 37° C. water bath, and then washed 3 times in Bruff's medium containing 10% FBS, each time centrifuging for 5 minutes at 1200 RPM. After the final wash, the APCs were brought to a concentration of 2×10^6 cells/ml in Bruff's medium containing 10% FBS. C-terminal amidated GAD65 peptide was titered from 333 μg/ml to 0.15 μg/ml in round bottom 96 well plates. Fifty microliters (1×10^5) APCs were added to the peptides. Hybridomas were counted and brought to a concentration of 1×10^6 cells/ml in Bruff's medium containing 10% FBS, and 100 μl (1×10^5) cells was added to each well. Hybridomas were also tested against the following: I-A^g7 MHC +a peptide other than C-terminal amidated GAD65; an MHC other than I-A^g7+C-terminal amidated GAD65; the I-A^g7 MHC alone; and C-terminal amidated GAD65 alone. The plate was incubated at 37° C., 5% CO2, overnight. […] Incorporation of ^3H-thymidine into the DNA was measured on a Wallac 1205 Betaplate Beta Counter (Turku, Finland). […]

[2] = tested on: NOD recipient mice; assay: Adoptive transfer of IDDM with splenocytes from diabetic NOD mice; format: in vivo, NOD mouse
Source text: IDDM can also be adoptively transferred by transplanting splenic cells from a diabetic-donor to a non-diabetic recipient (Baron et al., J. Clin. Invest. 93:1700-08, 1994). This method involves treating in vivo activated mature T cells. Briefly, NOD/CaJ mice are irradiated (730 rad) and randomly divided into treatment groups. Splenocytes, preferably about 1.5×10^7, from newly diabetic mice are isolated and injected intravenously into non-diabetic NOD 7-8 week old recipient mice, followed six hours later with intravenous injections of saline, peptide or MHC:peptide complex at 10, 5, or 1 μg/mouse. The injections are repeated on days 4, 8 and 12 following the original injection. Mice are tested for the onset of diabetes by urine analysis, and at the time of sacrifice, blood glucose. Treatment of these mice with an MHC:peptide complex is expected to lengthen the time period before the onset of diabetes and/or to prevent or ameliorate the disease. […]
IDDM can be adoptively transferred by injecting splenic cells from a diabetic donor into a non-diabetic recipient. […] Those animals showing positive urine values of at least 250 mg/dl glucose were further analyzed for blood glucose levels using tail clippings, and if the blood glucose was also at or above 250 mg/dl, the mice were classified as overtly diabetic. […]

[3] = tested on: NOD MHC Class II I-A^g7; details: known from the literature (Reich et al.); cited from earlier work
[4] = tested on: T cell lines derived from one HLA-DRB1*0404 patient (ThHo); assay: Reactivity of GAD-reactive human T cell lines to synthetic GAD peptides (3H-thymidine proliferation); format: cell-based; details: for number of T cell lines stimulated: of 4 T cell lines
Protocol: T-cell clones were rested (not given IL-2 for 2 days, at least 7 days post-stimulation with antigen), washed, counted and resuspended in 15% PHS medium. They were plated at 25,000 cells/well in […] 15% PHS medium. Autologous or HLA-class II-matched PBMNCs are loaded with GAD by incubating with GAD (about […]) for at least 5 hours. The cells are washed and irradiated with 3000 rads. These cells are washed and resuspended in 15% PHS medium, and added to the T-cells at a concentration of 1×10^6 cells/well in […] 15% PHS medium. The cells were incubated for 48 hours, then pulsed with […] 3H-thymidine and harvested. A positive response is considered to be a stimulation index >3 (stimulation index SI=average cpm of sample stimulated with antigen/average cpm of sample of cells stimulated with no antigen or control antigen). Some controls include T-cells alone, stimulators alone, a purified negative antigen, GAD purified from baculovirus, PHA, and IL-2.
Other methods, well known in the art, for testing clones and lines include dose response to antigen; response to these antigens or negative antigen controls; determination of HLA-class II restriction by adding blocking anti-HLA class II antibody to plates; and use of peptides to load stimulators to determine peptide specificity, which can be done as described above except the peptides are tested by dose titration and left in the assay. A dose response in combination with peptide specificity tests can also be done.
Four individual T cell lines derived from one HLA-DRB1*0404 patient (ThHo) were used to map the 74 synthetic GAD peptides, overlapping sets of 20 mers, that span the entire length of GAD 65 (SEQ. ID. NO. 59). Antigen presenting cells, BLS-DRB1*0404 and/or BLS-DRB1*0401 (Kovats et al., J. Exp. Med. 179:2017-22, 1994), were loaded with peptide by incubating with peptide (about […]) for at least 5 hours. Reactivity of T-cells was determined as above. One peptide, hGAD 33 ([…] SEQ. ID. NO. 40) stimulated 3 or the 4 lines with BLS-B1*0404. […]

SRLSKVAPVIKARMMEYGTT-NH2 [C-terminal amidated GAD65 peptide]
proliferative response, incorporated 3H-thymidine [1]: > 5000 cpm
mice that had developed disease by day 30 ([2]; 10 μg/mouse peptide alone): over 75%
overall effect on onset of diabetes in the adoptive transfer model ([2]; mouse, in vivo): accelerated the onset of diabetes

MSA: Mouse serum albumin (MSA), a known allele-specific peptide (SEQ. ID. NO. 61), positive control
affinity for I-A^g7 (control peptides) [3]: high affinity

PGGAISNMYAM [ID; NO; 39]
number of T cell lines stimulated ([4]; presented by either BLS-B1*0404 or BLS-DRB1*0401): one

PGGAISNMYAMMIARFKMFP (PGGAISNMYAMMIARFKNFP) [hGAD 33, ID; NO; 40]
number of T cell lines stimulated ([4]; peptide presented by BLS-B1*0404): 3

SRLSKVAPVIKARMMEYGTT [same GAD65 peptide (aa 524-543) with a carboxylic group at the C-terminus]
proliferative response (lesser response) [1]: > 2000 CMP

PGGAISNMYA [ID; NO; 41]
stimulation of T-cell line, HLA restriction ([4]; APC BLS-B1*0404 versus BLS-DRB1*0401): stimulated the same T-cell line only when presented by BLS-B1*0404
